Paper PMC8434134, “Biflavonoids from Selaginella doederleinii as Potential Antitumor Agents for Intervention of Non-Small Cell Lung Cancer” (Molecules, 2021)

Columns and labels:
MRC-5 cells = assay: MTT cytotoxicity assay, non-cancer MRC-5; assay type: cell-based; conditions: mean of n = 3, non-cancer cells
Text: (§1) To evaluate the anti-NSCLC activity of compounds 1–5, we tested their inhibitory effect on the proliferation of two NSCLC cell lines (A549 and H1299) as well as human normal embryonic lung cell line MRC-5 by the MTT assay using Cis-platin (DDP) as a positive control. […] Among them, compounds 1–3 were further studied for their potential apoptosis-mediated death of A549 cells because of their promising antiproliferative activity against NSCLC cells.
(§2) Human lung carcinoma cell lines (A549), human lung adenocarinoma epithelial cell lines (H1299) and human normal embryonic lung cell lines (MRC-5) were purchased from the Chinese Academy of Sciences (Shanghai). H1299 and MRC-5 cells were maintained in RPMI1640 medium, and A549 cell lines were maintained in MEN medium. Both media were supplemented with 10% fetal bovine serum. All of the cell lines were grown at 37 °C in a 5% CO2 atmosphere. The cell lines mentioned above were checked for mycoplasma contamination, and no contamination was observed.
(§3) Cytotoxicity of test compounds was assessed by the MTT assay. A549, H1299 and MRC-5 cells at a final density (3000 cells/well) were placed in 96-well cell plates and treated with or without different concentrations of the test compounds for 24 h. At the end of the treatment, 3-(4,5-dimethyl-2-thiazolyl)-2,5-diphenyl-2-H-tetrazolium bromide (MTT, […], 5 mg/mL) was added into each well, and the cells were further incubated for 4 h. The resulting formazan crystals were dissolved in […] of DMSO and the absorbance was read spectrophotometrically at 570 nm using an enzyme-linked immunosorbent assay plate reader. Experiments were conducted in triplicate. Inhibition rate (%) = [(Acontrol − Atreated)/Acontrol] × 100%. IC50 value represents the half of maximal inhibitory concentration.

A549 cells [1] = assay: MTT antiproliferative assay, A549; assay type: cell-based, human; conditions: mean of n = 3
Text: as §1, §2, §3

caspase-3 = assay: Western blot, caspase-3 level in A549 cells; assay type: cell-based, human; conditions: 3 μM, 24 h, β-actin as control
Description: (§4) Furthermore, to elucidate the mechanism underlying the apoptosis-inducing activity of compounds 1–3, we examined their regulatory effect on the expression of caspase-3/cleaved-caspase-3, which are hallmarks of apoptosis.
(§5) A549 cells (1 × 10^5/well) were cultured in six-well plates overnight and treated in triplicate with vehicle DMSO (0.1%, v/v) alone, or with indicated compound at 3 μM for 24 h. The cells were harvested and lysed with cell lysis buffer containing protease and phosphatase inhibitor cocktails (Beyotime, Shanghai, China). The concentrations of protein were determined using a BCA protein assay kit (Beyotime, Shanghai, China) and equalized before loading. Samples were denatured and subjected to SDS-PAGE gels followed by transfer to PVDF membrane and probed with specific antibodies against cleaved caspase-3, caspase-3, survivin, XIAP, β-actin, and GAPDH (Abcam, Shanghai, China), and then incubated with the secondary antibodies diluted in TBST. Finally, the protein bands were detected with ECL Western Blotting Kit according to the manufacturer’s specifications. Eventually, films were obtained and the light density of the target bar was analyzed by Image J software.

cleaved caspase-3 = assay: Western blot, cleaved caspase-3 level in A549 cells; assay type: cell-based, human; conditions: 3 μM, 24 h, β-actin as control
Description: as §4, §5

H1299 cells = assay: MTT antiproliferative assay, H1299; assay type: cell-based, human; conditions: mean of n = 3
Text: as §1, §2, §3

survivin = assay: Western blot, survivin expression in A549 cells; assay type: cell-based, human; conditions: 3 μM, 24 h, GAPDH as control
Description: (§6) The X-linked mammalian inhibitor of apoptosis protein (XIAP) and survivin, known as the inhibitor-of-apoptosis protein (IAP) members, play an important regulatory role in the caspase-dependent apoptosis. Therefore, the Western blot assay experiments were further performed to examine whether the inhibition of XIAP and survivin were involved in compounds 1–3 induced apoptosis.
as §5

XIAP = assay: Western blot, XIAP expression in A549 cells; assay type: cell-based, human; conditions: 3 μM, 24 h, GAPDH as control
Description: as §6, §5

A549 cells [2] = assay: FITC-Annexin V/PI apoptosis assay by flow cytometry; assay type: cell-based, human; conditions: 3 μM, 24 h
Description: Subsequently, to further verify the apoptosis induction potential of compounds 1–3, quantification of Annexin V-FITC/PI double positive cells was performed using flow cytometry analysis. A549 cells were incubated with indicated compounds, and the percentages of apoptotic A549 cells were determined by FITC-Annexin V and PI staining and flow cytometry.
Cells were incubated in six-well plates (1 × 10^5/well) and treated with vehicle control (i.e., 1% DMSO in buffer) or compounds 1–3 at 3 μM for 24 h, respectively. The collected cells were harvested, washed with PBS, and then stained with FITC-Annexin-V and PI. Apoptosis was determined with flow cytometry.

A549 cells [3] = assay: Cell cycle analysis, PI staining and flow cytometry; assay type: cell-based, human; conditions: 24 h
Description: In addition to apoptosis, the induction of cell cycle arrest is an important means to control the growth and development of cancer cells. To investigate whether 3 suppressed the cells’ growth by arresting the cell cycle, we performed the experiment where cell cycle distribution was analyzed with flow cytometry after staining the DNA with propidium iodide (PI).
A549 cells were treated with vehicle control (i.e., 1% DMSO in buffer) or compound 3 at indicated concentration for 24 h, respectively. The cells were harvested, washed, then fixed with 70% ethanol at −20 °C for 8 h, and incubated with PI/RNase staining buffer (BD Pharmingen) for 15 min at room temperature (25 °C). The DNA content in the different groups of cells was assessed with flow cytometry and analyzed by the software MODFIT.

[4] = Homo sapiens, MRC5, 24 h treatment
[5] = Homo sapiens, A549, 24 h treatment
[6] = Homo sapiens, NCI-H1299, 24 h treatment

Row | SMILES | IC50 (A549 cells [1]; [5]) [µM] | IC50 (H1299 cells; [6]) [µM] | IC50 (MRC-5 cells; 24 h treatment) [µM] | IC50 (A549 cells [1]; 24 h treatment) [µM] | relative level of caspase-3 (caspase-3) | relative level of cleaved caspase-3 (cleaved caspase-3) | IC50 (H1299 cells; 24 h treatment) [µM] | IC50 (MRC-5 cells; [4]) [µM] | level of survivin expression (survivin) | level of XIAP expression (XIAP) | apoptosis incidence in A549 cells (A549 cells [2]) [%] | G0/G1-phase cells (gate C in Figure 9A) (A549 cells [3]; 5 μM, control 60.8%) [%] | cell cycle arrest, phase (A549 cells [3]) | percentage of cells at the S phase (A549 cells [3]; control 10.6%, concentration not in the sentence (5 μM by Figure 9)) [%]
1 | N.N.[Cl][Pt][Cl] [DDP, Cis-platin, reference compound] | – | – | 49 | 13.3 | enhanced | enhanced | 24.5 | – | – | – | – | – | – | –
2 | Cc1c(O)cc2c(c1O)C(=O)C[C@@H](c1ccc(Oc3c(-c4ccc(O)cc4)oc4cc(O)cc(O)c4c3=O)cc1)O2 [Compound 4, (2″S)-6″-methyl-2″,3″-dihydrodelicaflavone] | 3.1 | 6.8 | – | – | – | – | – | 58.2 | – | – | – | – | – | –
3 | O=C1C[C@@H](c2ccc(Oc3c(-c4ccc(O)cc4)oc4cc(O)cc(O)c4c3=O)cc2)Oc2cc(O)cc(O)c21 [Compound 1, (2″S)-2″,3″-dihydrodelicaflavone] | 3.1 | 7.3 | – | – | – | – | – | > 100 | – | – | 41.3 | – | – | –

The next lines start with results.

Row | IC50 (A549 cells [1]; [5]) [µM] | IC50 (H1299 cells; [6]) [µM] | SMILES | IC50 (MRC-5 cells; 24 h treatment) [µM] | IC50 (A549 cells [1]; 24 h treatment) [µM] | relative level of caspase-3 (caspase-3) | relative level of cleaved caspase-3 (cleaved caspase-3) | IC50 (H1299 cells; 24 h treatment) [µM] | IC50 (MRC-5 cells; [4]) [µM] | level of survivin expression (survivin) | level of XIAP expression (XIAP) | apoptosis incidence in A549 cells (A549 cells [2]) [%] | G0/G1-phase cells (gate C in Figure 9A) (A549 cells [3]; 5 μM, control 60.8%) [%] | cell cycle arrest, phase (A549 cells [3]) | percentage of cells at the S phase (A549 cells [3]; control 10.6%, concentration not in the sentence (5 μM by Figure 9)) [%]
4 | 2.3 | 4 | COc1cc(O)c2c(=O)c(Oc3ccc(-c4cc(=O)c5c(O)cc(O)cc5o4)cc3)c(-c3ccc(O)cc3)oc2c1 [Compound 3, 7-O-methyldelicaflavone] | – | – | upregulation | upregulation | – | > 100 | suppressed | suppressed | 82.4 | 45.3 | S phase | 24.8
5 | 2.8 | 7.3 | Cc1c(O)cc2oc(-c3ccc(Oc4c(-c5ccc(O)cc5)oc5cc(O)cc(O)c5c4=O)cc3)cc(=O)c2c1O [Compound 2, 6″-methyldelicaflavone] | – | – | – | – | – | > 100 | – | – | 80.3 | – | – | –
6 | 7.9 | 8.4 | O=c1cc(-c2ccc(Oc3c(-c4ccc(O)cc4)oc4cc(O)cc(O)c4c3=O)cc2)oc2cc(O)cc(O)c12 [Compound 5, delicaflavone] | – | – | – | – | – | 36.8 | – | – | – | – | – | –
